Data as given in article PMC8147984, “Effects of Sponge-Derived Alkaloids on Activities of the Bacterial α-D-Galactosidase and Human Cancer Cell α-N-Acetylgalactosaminidase” (Biomedicines, 2021).

What was measured:
[1] = system: α-NaGalase in human colorectal adenocarcinoma cell line DLD-1; assay: Residual α-NaGalase activity (expression) in lysate of DLD-1 cells treated with alkaloids; type: cell-based; details: DLD-1 cells treated with 5 μM for 24 h
Experimental: DLD-1cells (5.0 × 10^5) were seeded in […] for 24 h at 37 °C in a 5% CO2 incubator. Then the cells were treated with compounds 1–9 at concentrations ranging from 0 to 20 μM for an additional 24 h. Then the cells were harvested using 0.02% EDTA, after this 3 mL of cold 15 mM Tris–HCl (pH 7.0) was added.
Every 3–4 days cells were rinsed in phosphate buffered PBS, detached from the tissue culture flask by 1× trypsin/EDTA solution, harvested with RPMI-1640 medium and centrifuge at 500 rpm for 3 min. The culture media was discarded and cells pellet was resuspended in EDTA/Tris solution and frozen at −80 °C.
Frozen lysates of cancer cells in the 15 mM Tris buffer, pH 7.0 containing 0.02% EDTA, defrosted and sonicated 10 times during 1 min with a break of 1 min. To remove the cellular detritus, the cell homogenate was centrifuged at 4 °C, 10,000 rpm, 30 min. The supernatant proteins were precipitated with 35% ammonium sulfate, kept during four hours at 4 °C to form a pellet. The protein pellet was collected by centrifugation (4 °C, 10,000 rpm, 30 min) and dissolved in 0.05 M sodium citrate buffer, pH 5.0. The supernatant proteins were precipitated with 75% ammonium sulfate, kept overnight at 4 °C to form a pellet. The protein pellet was collected by centrifugation (4 °C, 10,000 rev/min, 30 min) and dissolved in 0.05 M sodium citrate buffer, pH 5.0. Both extracts were dialyzed against the same buffer, centrifuged to separate the insoluble precipitate. α-NaGalase activity was tested in both extracts and was found only in the protein fraction precipitated with 75% ammonium sulfate. This supernatant was used in further work as partly purified enzyme. The purification quality was controlled by 12% Laemmli-SDS-PAGE-electrophoresis.
The activity of α-PsGal and α-NaGalase were determined by increasing the amount of p-nithrophenol (pNP). To assay the α-NaGalase activity 0.05 mL of cell extract and 0.1 mL of substrate pNPNA-α-Gal (8.8 mM) in 0.05 M sodium citrate buffer, pH 5.0 were placed in cells of 96-well plate and incubated at 37 °C for 30 min. The mixtures containing 0.05 mL of an enzyme solution and 0.1 mL of a substrate solution (3.3 mM) in 0.05 M sodium phosphate buffer (pH 7.0) were incubated at 20 °C during 5 min for determination of α-PsGal standard activity. […]
Absorbance was measured at 400 nm. Results were read with a computer program Gen5 and treated with ExCel computer program. […] Specific activity (A) was calculated as the enzyme activity (U) per 1 mg of protein. […] Residual activity (%) was calculated with formula: Residual activity (%) = v/v0 ×100, where v is the initial reaction rate of enzymes under the action of an inhibitor or other factors, v0 is the initial reaction rate of enzymes in the absence of the influence of any factors. […]

[2] = biological target: T1, α-D-galactosidase (α-PsGal) (Pseudoalteromonas sp. KMM 701, UniProt Q19AX0); assay: Inhibitory potency on recombinant α-PsGal (residual activity); type: biochemical; details: for Residual activity v/v0 (%) of the α-PsGal: preincubated 30 min, 20 °C, pH 7.0
T1 sequence (Q19AX0 1-710): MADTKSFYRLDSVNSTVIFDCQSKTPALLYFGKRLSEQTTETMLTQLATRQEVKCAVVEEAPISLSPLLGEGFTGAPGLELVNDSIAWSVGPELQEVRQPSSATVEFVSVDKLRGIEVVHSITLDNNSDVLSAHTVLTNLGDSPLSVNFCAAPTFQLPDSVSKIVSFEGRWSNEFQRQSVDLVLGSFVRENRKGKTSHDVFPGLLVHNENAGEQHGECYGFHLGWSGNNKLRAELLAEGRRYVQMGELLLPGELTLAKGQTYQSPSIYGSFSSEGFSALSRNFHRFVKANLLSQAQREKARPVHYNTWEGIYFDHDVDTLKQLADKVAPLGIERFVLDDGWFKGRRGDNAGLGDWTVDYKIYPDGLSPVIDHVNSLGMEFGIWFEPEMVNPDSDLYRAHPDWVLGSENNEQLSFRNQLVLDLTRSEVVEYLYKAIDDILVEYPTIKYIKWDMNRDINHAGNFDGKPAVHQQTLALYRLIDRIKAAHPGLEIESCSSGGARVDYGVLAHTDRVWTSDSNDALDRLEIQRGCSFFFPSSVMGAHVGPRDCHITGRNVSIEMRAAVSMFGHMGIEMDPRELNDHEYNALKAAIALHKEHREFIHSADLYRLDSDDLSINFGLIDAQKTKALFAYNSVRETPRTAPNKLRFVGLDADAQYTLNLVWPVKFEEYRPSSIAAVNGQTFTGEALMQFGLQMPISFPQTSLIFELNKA
Experimental: The recombinant wild-type α-D-galactosidase (α-PsGal) was produced as described earlier. The plasmid DNA pET-40b(+) containing insertion of the gene from the marine bacterium Pseudoalteromonas sp. KMM 701 encoding α-PsGal was transformed in the Escherichia coli strain Rosetta (DE3). Heterological expression was carried out at optimal conditions as described earlier. Purification of the recombinant […] was performed, according to described procedures. The purification quality was controlled by 12% Laemmli-SDS-PAGE-electrophoresis.
The activity of α-PsGal and α-NaGalase were determined by increasing the amount of p-nithrophenol (pNP). To assay the α-NaGalase activity 0.05 mL of cell extract and 0.1 mL of substrate pNPNA-α-Gal (8.8 mM) in 0.05 M sodium citrate buffer, pH 5.0 were placed in cells of 96-well plate and incubated at 37 °C for 30 min. The mixtures containing 0.05 mL of an enzyme solution and 0.1 mL of a substrate solution (3.3 mM) in 0.05 M sodium phosphate buffer (pH 7.0) were incubated at 20 °C during 5 min for determination of α-PsGal standard activity. The reactions were stopped by the addition of 0.15 mL of 1 M Na2CO3 solution.
Absorbance was measured at 400 nm. Results were read with a computer program Gen5 and treated with ExCel computer program. The unit of standard activity (U) was defined as the amount of the enzyme catalyzing the formation of 1 µmol of p-nitrophenol (ε400 = 18,300 M^−1 cm^−1) per 1 min under the conditions indicated. Specific activity (A) was calculated as the enzyme activity (U) per 1 mg of protein. All calculations were based on reactions with consumption of 10% of the chromogenic substrate. The protein concentrations were estimated by the Bradford method with BSA as a standard. Residual activity (%) was calculated with formula: Residual activity (%) = v/v0 ×100, where v is the initial reaction rate of enzymes under the action of an inhibitor or other factors, v0 is the initial reaction rate of enzymes in the absence of the influence of any factors. Buffer solutions of α-PsGal (0.1 U/mL) and α-NaGalase (0.01 U/mL) were used in the further experiments.
In the control sample, 5 μL of water or 2 μL of EtOH were added to 25 μL of enzyme solution. The enzyme reaction was initiated by adding 120 μL of the substrate pNP-α-Gal (3.3 mM) for α-PsGal or pNPNA-α-Gal (8.8 mM) for α-NaGalase in the respective buffer solutions. After 10 min for α-PsGal or 60 min for α-NaGalase the reaction was stopped by adding 150 μL of 1 M Na2CO3. The amount of pNP was quantified by spectrophotometric detection at 400 nm. Results were evaluated as the percent of residual activity as described above.

DLD-1 cells = assay: MTS cytotoxic activity assay on DLD-1 cells; type: cell-based, human; details: 24 h, dose up to 20 μM
Experimental: DLD-1 cells (8 × 10^3/200 μL) were seeded in 96-well plates for 24 h at 37 °C in a 5% CO2 incubator. The cells were treated with compounds 1–9 at concentrations ranging from 0 to 20 μM for an additional 24 h. Subsequently, cells were incubated with 15 μL MTS (3-(4,5-dimethylthiazol-2-yl)-5-(3-carboxymethoxyphenyl)-2-(4-sulfophenyl)-2H-tetrazolium) reagent for 3 h, and the absorbance in each well was measured at 490/630 nm using a microplate reader “Power Wave XS” (Bio Tek, Winooski, VT, USA). All the experiments were repeated three times, and the mean absorbance values were calculated. The results are expressed in absorbance by the compound’s treatment compared to the non-treated cells (control 1) and the compounds in medium (control 2). All the experiments were made in triplicate.

[3] = biological target: T1, α-D-galactosidase (α-PsGal); assay: Irreversibility of α-PsGal inhibition (dialysis experiment); type: biochemical; details: dialysis against buffer for 60 h at 4 °C; activity did not recover
Experimental: To determine the reversibility of the α-PsGal activity inhibition by alkaloids 2, 3, 8, and 9 15 µL of 0.625 mM aqueous solution of the compounds 2 and 3 or 6 µL of 2.5 mM ethanol solution of the compound 8 and 9 were added to 75 µL of the enzyme solution in 0.05 M sodium phosphate buffer (pH 7.0). After 30 min of the mixture incubation the aliquot of 30 µL was taken and 120 µL of 3.3 mM pNPG solution were added to initiate the reaction; the reaction was stopped by addition of 150 µL of 1M Na2CO3. The α-D-galactosidase activity was determined, as described above. The remaining reaction mixture was dialyzed against 1 L of 0.02 M sodium phosphate buffer (pH 7.0) for 60 h at 4 °C. The buffer was changed 3 times during the dialysis. The enzyme activity was determined, as described above. A sample of α-PsGal treated with H2O or EtOH in the absence of the inhibitor (75 µL of the enzyme solution and 15 µL of H2O or 6 µL of EtOH, respectively) was dialyzed and used as a control for determination of the initial activity. The experiment was carried out in two replicates. The residual activity was calculated as described above.

[4] = biological target: T1, α-D-galactosidase (α-PsGal); assay: Kinetic studies of α-PsGal inactivation; type: biochemical; details: pH 7.0, 20 °C
Experimental: The kinetic parameters Ki and kinact were determined by classic methods. The inactivation of α-PsGal was monitored by incubation of the enzyme with different concentrations of alkaloids in […] sodium phosphate buffer, pH 7.0, at 20 °C in total volume of 30 µL (25 µL and 5 µL of α-PsGal and alkaloids, respectively), which were placed in cells of 96 cells plate. After preincubation of enzyme-inhibitor mixture for 0.5, 5, 10, 15, 20, 25, or 30 min […] the fraction of remaining enzyme activity was measured as a function of time by addition to the inactivation mixture 120 µL of a solution of pNP-α-Gal (3.3 mM). The pseudo-first-order rate constant of inactivation (kobs) was determined for each inactivator concentration as the slope of the v/v0 dependence on the incubation time in semilogarithmic coordinates. The Excel software was used for these calculations. The second order rate constants for the inactivation process were determined by fitting the dependences of the kobs values on the concentration of the inactivators to the Hill or Michaelis–Menten equations. An analysis of the graphs and the choice of models for calculation of inhibition constants (Ki, mM) and inactivation rate constants (kinact, min^–1) were performed with the Origin computer software.

SMILES | expression of the enzyme α-NaGalase (residual activity of lysate cell α-NaGalase, control 100%) [1] [%] | inhibitory activity against α-PsGal (in words) [2] | Residual activity v/v0 (%) of the α-PsGal ([2]; compound concentration 1.48 mM) | Residual activity v/v0 (%) of the α-PsGal ([2]; compound concentration 1.67 mM) | cytotoxicity against DLD-1 cells (DLD-1 cells) | irreversibility of α-PsGal inhibition [3] | n, Hill's coefficient of cooperativity [4] | Ki ([4]; Hill equation fit, read-out: Ki, equilibrium inhibition constant) [µM] | kinact ([4]; Hill equation fit, read-out: kinact, inactivation rate constant (converted)) [s⁻¹] | n, Hill's coefficient of cooperativity ([4]; listed as makaluvamine G (8))
Cn1cc2c3c1C(=O)C(N)=CC3=[N+](C)CC2 [Compound 7, makaluvamine H] | 50 | no notable activity | 67 ^2% |  |  |  |  |  |  | 
COc1cc2ccnc3c2c(c1OC)NC=C3 [Compound 1, aaptamine] |  | no notable activity |  | 79 ^1% | non-cytotoxic |  |  |  |  | 
Cn1cc2c3c1C(=O)C(N/C=C/c1ccc(O)cc1)=CC3=[N+](C)CC2 [Compound 8, makaluvamine G] |  | low inhibitory activity | 28 ^2% |  |  | irreversibly inactivate | 2.5 | 411 ± 86 | 0.00132 | 2.5 ± 0.97
COc1cc2c3c(cc[n+](C)c3c1[O-])NC(=O)C2=O [Compound 4, aaptanone] |  | no notable activity |  | 100 ^1% |  |  |  |  |  | 
